This passage reports IC50, EC50 and AC50 results from ChEMBL document CHEMBL1201862, “PubChem BioAssay data set” (2004).

The structures appear in SMILES notation. pIC50: −log10 of the molar value. Active and inactive are the calls of the source.

Assay [1] has as its target T1, Nucleotide-binding oligomerization domain-containing protein 1 (Homo sapiens, UniProt Q9Y239).
T1 sequence (Q9Y239 whole entry): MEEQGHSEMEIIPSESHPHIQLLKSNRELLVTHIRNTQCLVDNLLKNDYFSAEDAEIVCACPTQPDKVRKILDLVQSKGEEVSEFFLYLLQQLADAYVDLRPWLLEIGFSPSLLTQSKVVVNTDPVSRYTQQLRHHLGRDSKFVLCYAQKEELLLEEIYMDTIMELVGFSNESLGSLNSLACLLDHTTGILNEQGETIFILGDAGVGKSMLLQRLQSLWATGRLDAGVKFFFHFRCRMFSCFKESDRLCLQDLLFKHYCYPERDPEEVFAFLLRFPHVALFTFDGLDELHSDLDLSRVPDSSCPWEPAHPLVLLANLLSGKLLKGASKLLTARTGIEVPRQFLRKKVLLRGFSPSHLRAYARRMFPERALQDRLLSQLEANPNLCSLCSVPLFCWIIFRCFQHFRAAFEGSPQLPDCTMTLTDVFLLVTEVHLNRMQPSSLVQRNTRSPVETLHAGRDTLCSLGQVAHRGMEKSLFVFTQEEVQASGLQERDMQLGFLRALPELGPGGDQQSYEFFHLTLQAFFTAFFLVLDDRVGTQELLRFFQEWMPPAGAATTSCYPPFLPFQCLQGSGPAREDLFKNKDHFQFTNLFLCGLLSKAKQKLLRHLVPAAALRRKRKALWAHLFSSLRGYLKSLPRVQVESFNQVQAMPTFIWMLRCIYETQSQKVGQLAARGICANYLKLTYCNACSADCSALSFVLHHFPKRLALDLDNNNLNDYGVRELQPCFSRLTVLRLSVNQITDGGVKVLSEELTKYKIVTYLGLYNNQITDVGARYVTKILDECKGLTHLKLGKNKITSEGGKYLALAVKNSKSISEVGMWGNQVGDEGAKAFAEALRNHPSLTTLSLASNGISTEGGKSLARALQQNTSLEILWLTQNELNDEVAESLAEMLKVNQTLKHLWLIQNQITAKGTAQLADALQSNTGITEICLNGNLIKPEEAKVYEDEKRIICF
The assay is described as follows: SAR analysis of NF-kappaB dependent luciferase using DAP as an inducer - Set 2. [Related pubchem assays (depositor defined):AID1566, AID1575, AID1578, AID1579, AID1849, AID1852, AID2264]. Format: functional.

The target of assay [2] is T2, Interleukin-8 (Homo sapiens, UniProt P10145).
T2 sequence (P10145 whole entry): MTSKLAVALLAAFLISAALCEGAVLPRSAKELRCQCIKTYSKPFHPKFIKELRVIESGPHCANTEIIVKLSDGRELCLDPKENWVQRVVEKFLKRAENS
The assay is described as follows: SAR analysis of Tumor necrosis factor alpha (TNF-alpha) induced IL-8 secretion in MCF-7/NOD1 cells - Set 2. [Related pubchem assays (depositor defined):AID1575, AID2250, AID2260]. The format is functional, cell-based.

Assay [3] addresses T2, Interleukin-8. Briefly: SAR analysis of GM-Tri-DAP induced IL-8 secretion in MCF-7/NOD1 cells - Set 2. [Related pubchem assays (depositor defined):AID1575, AID1578, AID2333]. Format: functional, cell-based.
Assay [4] deals with T3, Nucleotide-binding oligomerization domain-containing protein 2 (Homo sapiens, UniProt Q9HC29). Briefly: NOD2 inhibitors, SAR follow-up, set 2 (AID 2475). The format is functional.
T3 sequence (Q9HC29 whole entry, the tested form may be a part): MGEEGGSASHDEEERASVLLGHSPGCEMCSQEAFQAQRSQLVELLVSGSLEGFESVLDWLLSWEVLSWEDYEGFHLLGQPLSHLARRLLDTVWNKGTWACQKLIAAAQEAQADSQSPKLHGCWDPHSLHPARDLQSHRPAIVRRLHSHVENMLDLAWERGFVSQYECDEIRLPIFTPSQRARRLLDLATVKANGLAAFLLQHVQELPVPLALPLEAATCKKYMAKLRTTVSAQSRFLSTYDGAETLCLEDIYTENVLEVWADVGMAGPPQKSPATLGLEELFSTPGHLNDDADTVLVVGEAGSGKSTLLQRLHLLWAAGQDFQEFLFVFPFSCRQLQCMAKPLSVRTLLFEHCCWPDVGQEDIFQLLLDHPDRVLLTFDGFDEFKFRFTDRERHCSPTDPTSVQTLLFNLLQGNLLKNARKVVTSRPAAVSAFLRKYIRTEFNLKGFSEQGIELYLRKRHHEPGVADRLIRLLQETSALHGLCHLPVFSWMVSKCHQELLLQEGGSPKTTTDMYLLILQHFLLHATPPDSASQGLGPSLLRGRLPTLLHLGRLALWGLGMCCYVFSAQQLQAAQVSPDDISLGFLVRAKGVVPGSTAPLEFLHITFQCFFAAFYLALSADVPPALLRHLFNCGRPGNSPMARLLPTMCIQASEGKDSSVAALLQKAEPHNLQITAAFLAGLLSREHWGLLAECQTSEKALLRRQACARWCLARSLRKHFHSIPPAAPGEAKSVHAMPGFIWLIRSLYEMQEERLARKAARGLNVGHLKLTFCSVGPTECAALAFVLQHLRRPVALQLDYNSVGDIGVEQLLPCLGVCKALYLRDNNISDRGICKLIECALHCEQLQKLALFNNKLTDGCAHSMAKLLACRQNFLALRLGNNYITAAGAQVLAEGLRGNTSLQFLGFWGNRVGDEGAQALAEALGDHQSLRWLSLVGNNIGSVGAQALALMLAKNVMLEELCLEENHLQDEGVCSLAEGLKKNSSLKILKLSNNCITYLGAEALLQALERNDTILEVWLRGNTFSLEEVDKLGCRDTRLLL
For assay [5], the system named is HEK293. Briefly: SAR analysis of compounds that are cytotoxic to HEK293 - Set 2. [Related pubchem assays (depositor defined):AID1575, AID1578, AID1849, AID2001, AID2333, AID2334, AID2335, AID2337, AID2800]. The format is functional, cell-based. Conditions: Homo sapiens.
Assay [6] has as its target T1, Nucleotide-binding oligomerization domain-containing protein 1. Briefly: SAR analysis of compounds that inhibit NOD1 - Set 2. [Related pubchem assays (depositor defined):AID1566, AID1575, AID1578, AID1849, AID1852, AID2333, AID2335, AID2798]. The format is functional.
Assay [7] has the same target. The assay is described as follows: SAR analysis of compounds that inhibit NOD1 - Set 3. [Related pubchem assays (depositor defined):AID1566, AID1575, AID1578, AID1849, AID1852, AID2333, AID2335, AID2466]. Format: functional.
The target in the next assay is Tumor necrosis factor (Homo sapiens, UniProt P01375). Briefly: TNFa-triggered NF-kB activation inhibitors, SAR follow-up, cell-based, set 3 (AID 2801). The format is functional.
Tumor necrosis factor, sequence (P01375 whole entry): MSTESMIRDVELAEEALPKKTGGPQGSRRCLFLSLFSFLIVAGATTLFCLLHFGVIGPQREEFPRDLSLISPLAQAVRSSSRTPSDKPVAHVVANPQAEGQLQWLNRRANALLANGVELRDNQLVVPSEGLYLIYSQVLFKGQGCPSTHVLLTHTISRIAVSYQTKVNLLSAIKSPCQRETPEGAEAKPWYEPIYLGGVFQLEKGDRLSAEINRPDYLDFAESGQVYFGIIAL
Assay [8] has as its system HEK293. The assay is described as follows: SAR analysis of compounds that are cytotoxic to HEK293 - Set 3. [Related pubchem assays (depositor defined):AID1575, AID1578, AID1848, AID1849, AID2001, AID2333, AID2334, AID2335, AID2337, AID2469]. Conditions: Homo sapiens. Format: functional, cell-based.
The target in assay [9] is T3, Nucleotide-binding oligomerization domain-containing protein 2. Briefly: NOD2 signaling inhibitors, analog potency, SAR follow-up, cell-based, set 3 (AID 2799). Format: functional.
For assay [10], the target named is T4, Delta-type opioid receptor (Homo sapiens, UniProt P41143). The assay is described as follows: HTS Image-Based Screen for Antagonists of the DOR Receptor. [Related pubchem assays (depositor defined):AID1777, AID1785, AID1786, AID2133]. Format: functional.
T4 sequence (P41143 whole entry): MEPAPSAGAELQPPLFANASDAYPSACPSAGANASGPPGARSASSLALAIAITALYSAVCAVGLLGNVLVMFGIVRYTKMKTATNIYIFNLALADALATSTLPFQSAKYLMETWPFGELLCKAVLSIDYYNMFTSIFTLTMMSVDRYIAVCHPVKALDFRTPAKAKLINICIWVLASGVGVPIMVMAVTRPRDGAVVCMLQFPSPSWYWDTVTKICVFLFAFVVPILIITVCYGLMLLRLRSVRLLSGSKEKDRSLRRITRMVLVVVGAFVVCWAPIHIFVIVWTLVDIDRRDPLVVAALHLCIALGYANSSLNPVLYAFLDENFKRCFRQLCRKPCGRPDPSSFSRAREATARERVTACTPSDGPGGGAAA
A further assay addresses Mu-type opioid receptor (Homo sapiens, UniProt P35372). The assay is described as follows: HTS Image-Based Screen for Agonists of the MOR Receptor. [Related pubchem assays (depositor defined):AID1777, AID1785, AID1786, AID2133]. The format is functional.
Assay [11] has as its target T4, Delta-type opioid receptor. Briefly: HTS Image-Based Screen for Agonists of the DOR Receptor. [Related pubchem assays (depositor defined):AID1777, AID1786, AID2133]. The format is functional.
The target in assay [12] is T5, Kappa-type opioid receptor (Homo sapiens, UniProt P41145). Format: functional.
T5 sequence (P41145 whole entry): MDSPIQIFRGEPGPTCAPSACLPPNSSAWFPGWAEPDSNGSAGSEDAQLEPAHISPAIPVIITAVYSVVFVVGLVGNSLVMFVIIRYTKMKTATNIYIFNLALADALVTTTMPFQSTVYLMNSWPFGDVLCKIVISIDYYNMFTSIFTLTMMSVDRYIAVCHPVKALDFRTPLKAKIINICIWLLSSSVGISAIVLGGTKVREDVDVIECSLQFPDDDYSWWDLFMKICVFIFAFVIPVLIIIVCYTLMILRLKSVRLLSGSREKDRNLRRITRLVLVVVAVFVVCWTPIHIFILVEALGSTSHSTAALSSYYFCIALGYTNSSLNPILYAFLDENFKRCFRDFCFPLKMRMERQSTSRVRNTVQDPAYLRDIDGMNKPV
The target of a further assay is Beta-galactosidase (Escherichia coli, UniProt Q8VNN2). The format is functional.
Beta-galactosidase, sequence (Q8VNN2 whole entry): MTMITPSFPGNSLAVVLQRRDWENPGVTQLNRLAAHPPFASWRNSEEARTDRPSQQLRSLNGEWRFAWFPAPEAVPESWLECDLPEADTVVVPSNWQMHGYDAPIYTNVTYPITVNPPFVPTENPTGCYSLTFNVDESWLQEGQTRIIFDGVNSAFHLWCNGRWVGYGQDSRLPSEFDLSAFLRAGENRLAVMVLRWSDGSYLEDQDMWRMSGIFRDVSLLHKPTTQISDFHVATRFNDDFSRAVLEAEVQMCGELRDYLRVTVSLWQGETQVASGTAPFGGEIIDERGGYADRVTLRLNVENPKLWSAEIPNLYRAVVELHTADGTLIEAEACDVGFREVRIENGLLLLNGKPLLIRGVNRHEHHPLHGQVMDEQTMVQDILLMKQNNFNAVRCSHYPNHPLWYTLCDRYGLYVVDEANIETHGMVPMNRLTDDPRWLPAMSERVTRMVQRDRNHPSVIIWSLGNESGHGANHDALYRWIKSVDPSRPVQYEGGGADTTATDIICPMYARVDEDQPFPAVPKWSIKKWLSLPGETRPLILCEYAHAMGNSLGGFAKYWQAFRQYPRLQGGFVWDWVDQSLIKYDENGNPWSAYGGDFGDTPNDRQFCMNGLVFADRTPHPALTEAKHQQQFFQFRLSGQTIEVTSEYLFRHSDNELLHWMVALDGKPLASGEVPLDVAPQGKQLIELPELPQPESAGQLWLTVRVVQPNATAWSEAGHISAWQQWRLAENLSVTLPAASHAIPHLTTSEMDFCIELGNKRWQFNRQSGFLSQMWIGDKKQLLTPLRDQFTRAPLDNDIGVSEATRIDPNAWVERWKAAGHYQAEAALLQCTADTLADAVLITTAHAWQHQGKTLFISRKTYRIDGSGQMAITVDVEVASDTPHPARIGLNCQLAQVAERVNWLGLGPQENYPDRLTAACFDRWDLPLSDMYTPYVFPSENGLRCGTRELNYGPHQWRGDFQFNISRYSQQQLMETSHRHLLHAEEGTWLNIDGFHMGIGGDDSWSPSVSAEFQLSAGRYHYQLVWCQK
Assay [13] concerns the target T5, Kappa-type opioid receptor. Format: functional. The source holds these as a separate data set.
In assay [14] the target is T6, Replicative DNA helicase DnaB (Mycobacterium tuberculosis, UniProt P9WMR3).
T6 sequence (P9WMR3 whole entry): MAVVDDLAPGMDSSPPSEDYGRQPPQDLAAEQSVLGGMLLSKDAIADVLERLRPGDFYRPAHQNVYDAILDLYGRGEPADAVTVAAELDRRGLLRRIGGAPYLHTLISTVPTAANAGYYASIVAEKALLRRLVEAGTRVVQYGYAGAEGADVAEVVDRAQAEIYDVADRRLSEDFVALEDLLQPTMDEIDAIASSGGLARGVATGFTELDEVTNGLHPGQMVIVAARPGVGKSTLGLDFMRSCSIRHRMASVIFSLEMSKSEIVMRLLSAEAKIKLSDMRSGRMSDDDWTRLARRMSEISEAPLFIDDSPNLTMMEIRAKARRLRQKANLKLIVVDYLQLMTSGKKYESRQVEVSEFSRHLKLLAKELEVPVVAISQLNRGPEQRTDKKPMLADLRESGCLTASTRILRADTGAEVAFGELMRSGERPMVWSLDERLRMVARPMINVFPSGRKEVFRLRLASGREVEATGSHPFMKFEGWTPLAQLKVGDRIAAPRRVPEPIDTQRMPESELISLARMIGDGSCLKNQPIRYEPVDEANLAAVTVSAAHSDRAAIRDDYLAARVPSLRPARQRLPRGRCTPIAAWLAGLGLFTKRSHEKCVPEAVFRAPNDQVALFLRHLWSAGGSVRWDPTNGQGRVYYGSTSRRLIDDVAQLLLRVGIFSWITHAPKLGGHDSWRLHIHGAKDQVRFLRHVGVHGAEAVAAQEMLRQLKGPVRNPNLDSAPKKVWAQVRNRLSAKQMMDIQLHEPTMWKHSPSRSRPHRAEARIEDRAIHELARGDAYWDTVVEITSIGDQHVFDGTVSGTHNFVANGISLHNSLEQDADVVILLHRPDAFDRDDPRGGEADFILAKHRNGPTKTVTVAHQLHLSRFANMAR
The assay is described as follows: DnaB intein splicing inhibitors, dose response, biochemical, cell-free fluorescence (AID 449749). Format: functional.

The next assay has as its target T7, Protein RecA (Mycobacterium tuberculosis, UniProt P9WHJ3).
T7 sequence (P9WHJ3 whole entry): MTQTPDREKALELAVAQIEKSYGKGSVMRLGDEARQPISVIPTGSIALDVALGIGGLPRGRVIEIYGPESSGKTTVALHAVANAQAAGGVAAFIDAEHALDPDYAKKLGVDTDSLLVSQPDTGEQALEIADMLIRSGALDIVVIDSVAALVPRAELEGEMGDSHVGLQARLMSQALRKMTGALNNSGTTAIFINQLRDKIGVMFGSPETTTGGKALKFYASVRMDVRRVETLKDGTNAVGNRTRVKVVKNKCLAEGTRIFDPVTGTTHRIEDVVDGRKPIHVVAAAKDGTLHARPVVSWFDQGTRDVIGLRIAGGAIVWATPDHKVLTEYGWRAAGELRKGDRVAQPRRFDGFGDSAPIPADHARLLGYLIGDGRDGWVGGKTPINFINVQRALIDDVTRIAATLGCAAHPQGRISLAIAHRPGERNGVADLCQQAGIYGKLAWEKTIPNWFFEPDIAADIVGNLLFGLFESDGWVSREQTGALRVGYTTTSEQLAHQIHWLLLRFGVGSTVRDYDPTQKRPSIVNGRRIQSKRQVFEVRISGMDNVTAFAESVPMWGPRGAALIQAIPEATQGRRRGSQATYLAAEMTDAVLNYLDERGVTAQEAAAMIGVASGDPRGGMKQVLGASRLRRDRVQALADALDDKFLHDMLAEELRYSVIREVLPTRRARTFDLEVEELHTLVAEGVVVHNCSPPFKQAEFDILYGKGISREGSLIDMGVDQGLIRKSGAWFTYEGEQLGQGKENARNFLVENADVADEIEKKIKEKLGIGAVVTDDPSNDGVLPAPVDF
Briefly: Fluorescence Cell-Free Homogeneous Dose Retest to Identify Inhibitors of RecA-Intein Splicing Activity. [Related pubchem assays (depositor defined):AID2097, AID2223, AID489010, AID492950]. The format is functional.

Mu-type opioid receptor, sequence (P35372 whole entry): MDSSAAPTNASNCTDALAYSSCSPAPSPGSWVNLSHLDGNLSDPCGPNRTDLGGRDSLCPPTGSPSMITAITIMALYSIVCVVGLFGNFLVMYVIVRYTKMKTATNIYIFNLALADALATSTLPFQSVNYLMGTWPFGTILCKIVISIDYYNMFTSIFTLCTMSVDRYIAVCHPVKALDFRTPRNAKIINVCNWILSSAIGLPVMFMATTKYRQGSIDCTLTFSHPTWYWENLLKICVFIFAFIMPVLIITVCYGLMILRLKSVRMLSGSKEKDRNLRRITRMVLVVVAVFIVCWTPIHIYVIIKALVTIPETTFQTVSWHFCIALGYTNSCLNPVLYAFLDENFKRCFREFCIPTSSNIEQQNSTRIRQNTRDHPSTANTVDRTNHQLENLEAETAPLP

In the case of `CCCn1c(SCCc2ccccc2)nc2c1c(=O)[nH]c(=O)n2C`, the IC50 in assay [1] was > 25 µM (inactive); on Interleukin-8 [2] it was > 25 µM (inactive); at Interleukin-8 [3] it was > 25 µM (inactive); in assay [4] it was > 20 µM (inactive); in the assay on HEK293 [5] it was > 20 µM (inactive); in assay [6], > 20 µM (inactive). The IC50 (in assay [7]; on Tumor necrosis factor; in the assay on HEK293 [8]; in assay [9]) was > 20 µM (inactive) in each case.
In the case of `O=[N+]([O-])c1ccc2nc(Cl)nc(-c3ccccc3)c2c1`, the IC50 is > 32 µM (inactive) in assay [10] and 8.95 µM (active) in assay [12]. Moreover, the EC50 was > 32 µM (inactive) at Mu-type opioid receptor, > 32 µM (inactive) in assay [11], > 31.5 µM (inactive) at Beta-galactosidase and > 380 µM (inactive) at Protein RecA. Moreover, the pIC50 in [13] is 4.55. Besides, the AC50 in assay [14] was 134 µM (active).

One may read the IC50 as the concentration that inhibits the measured activity by half. In general, EC50 refers to the midpoint of the concentration-response curve. For orientation: pIC50 means the IC50 on a negative log10 scale, so that one unit is a factor of ten. Low readings indicate a large IC50, high ones a small IC50. Broadly, the AC50 is the midpoint of the concentration-response curve, whichever way the signal moves.
